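Tested at 5 concentrations; 48 h exposure; 96-well plates; endpoints linearly interpolated, else capped at highest concentration. GI50 is the concentration that inhibits growth by half.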 Active and inactive are the calls of the source. Rule as the data show it: active = GI50 up to about 1.1 µM and inactive = higher.
Columns and labels:
Test in all cases: inhibition of tumour cell growth, NCI panel, 48 h
HT-29 = test system: HT-29
DMS-273 = test system: DMS-273
SN12C = test system: SN12C
SF-539 = test system: SF-539
ACHN = test system: ACHN
SK-MEL-2 = test system: SK-MEL-2
LXFL 529 = test system: LXFL 529
SNB-19 = test system: SNB-19
KM12 = test system: KM12
786-0 = test system: 786-0
RXF 393 = test system: RXF 393
NCI-H460 = test system: NCI-H460
M19-MEL = test system: M19-MEL
DLD-1 = test system: DLD-1
MDA-MB-231 = test system: MDA-MB-231
OVCAR-5 = test system: OVCAR-5
HCT-15 = test system: HCT-15
BT-549 = test system: BT-549
DU-145 = test system: DU-145
Hs-578T = test system: Hs-578T

Structure (SMILES): Cc1ccc(C2=Nc3ccccc3[S+]([O-])C(c3ccc4c(c3)OCO4)C2)cc1 (stereo unspecified)
- GI50 (HT-29): 17.7 µM (inactive)
- GI50 (DMS-273): 28.6 µM (inactive)
- GI50 (SN12C): 17.4 µM (inactive)
- GI50 (SF-539): 21.2 µM (inactive)
- GI50 (ACHN): 20.3 µM (inactive)
- GI50 (SK-MEL-2): 19 µM (inactive)
- GI50 (LXFL 529): > 10 µM (inactive)
- GI50 (SNB-19): 58.7 µM (inactive)
- GI50 (KM12): 18.2 µM (inactive)
- GI50 (786-0): 19.9 µM (inactive)
- GI50 (RXF 393): 16.9 µM (inactive)
- GI50 (NCI-H460): > 10 µM (inactive)
- GI50 (M19-MEL): 27 µM (inactive)
- GI50 (DLD-1): 12.3 µM (inactive)

Structure (SMILES): O=C1C=C(Nc2cccnc2)c2ccccc2C1=O
- GI50 (MDA-MB-231): 4.61 µM (inactive)
- GI50 (HT-29): 17 µM (inactive)
- GI50 (OVCAR-5): 8.13 µM (inactive)
- GI50 (DMS-273): 6.81 µM (inactive)
- GI50 (HCT-15): 4.31 µM
- GI50 (SN12C): 8.02 µM (inactive)
- GI50 (BT-549): 1.44 µM (inactive)
- GI50 (SF-539): 2.97 µM (inactive)
- GI50 (ACHN): 7.73 µM (inactive)
- GI50 (SK-MEL-2): 7.23 µM (inactive)
- GI50 (LXFL 529): 11.4 µM (inactive)
- GI50 (SNB-19): 7.1 µM (inactive)
- GI50 (KM12): 4.03 µM (inactive)
- GI50 (DU-145): 4.15 µM (inactive)
- GI50 (786-0): 8.95 µM (inactive)
- GI50 (RXF 393): 13.1 µM (inactive)
- GI50 (NCI-H460): 3.41 µM (inactive)
- GI50 (Hs-578T): 2.4 µM (inactive)
- GI50 (DLD-1): 5.11 µM (inactive)

Structure (SMILES): C=C=C(Sc1ccccc1)C(C)(C)O
- GI50 (HT-29): > 100 µM (inactive)
- GI50 (OVCAR-5): > 100 µM (inactive)
- GI50 (HCT-15): > 100 µM
- GI50 (SN12C): > 100 µM (inactive)
- GI50 (SF-539): > 100 µM (inactive)
- GI50 (ACHN): > 100 µM (inactive)
- GI50 (SK-MEL-2): > 100 µM (inactive)
- GI50 (LXFL 529): > 100 µM (inactive)
- GI50 (SNB-19): > 100 µM (inactive)
- GI50 (KM12): > 100 µM (inactive)
- GI50 (DU-145): > 100 µM (inactive)
- GI50 (786-0): > 100 µM (inactive)
- GI50 (RXF 393): > 100 µM (inactive)
- GI50 (NCI-H460): > 100 µM (inactive)
- GI50 (M19-MEL): > 100 µM (inactive)
- GI50 (DLD-1): > 100 µM (inactive)

Structure (SMILES): Cc1occ2c1C(=O)CC1C2[C@@H](O)CC2C(C)(C)CCC[C@]12C (stereo partly specified)
- GI50 (HT-29): > 100 µM (inactive)
- GI50 (HCT-15): > 100 µM
- GI50 (SN12C): > 100 µM (inactive)
- GI50 (SF-539): > 100 µM (inactive)
- GI50 (ACHN): > 100 µM (inactive)
- GI50 (LXFL 529): > 100 µM (inactive)
- GI50 (SNB-19): > 100 µM (inactive)
- GI50 (786-0): > 100 µM (inactive)
- GI50 (RXF 393): > 100 µM (inactive)
- GI50 (M19-MEL): > 100 µM (inactive)
- GI50 (DLD-1): > 100 µM (inactive)

Structure (SMILES): CC(=O)c1cccc(NC(=O)/C(=N\NC(C)(C)C)c2c(O)c3ccccc3oc2=O)c1
- GI50 (HT-29): 53.2 µM (inactive)
- GI50 (DMS-273): > 100 µM (inactive)
- GI50 (HCT-15): > 100 µM
- GI50 (SN12C): > 100 µM (inactive)
- GI50 (SF-539): > 100 µM (inactive)
- GI50 (ACHN): > 100 µM (inactive)
- GI50 (SK-MEL-2): > 100 µM (inactive)
- GI50 (LXFL 529): > 100 µM (inactive)
- GI50 (SNB-19): > 100 µM (inactive)
- GI50 (KM12): > 100 µM (inactive)
- GI50 (786-0): > 100 µM (inactive)
- GI50 (RXF 393): > 100 µM (inactive)
- GI50 (NCI-H460): > 100 µM (inactive)
- GI50 (M19-MEL): 84.7 µM (inactive)
- GI50 (DLD-1): > 100 µM (inactive)

Structure (SMILES): O=C(CCCCCCCCC(=O)OCC1OC(n2cnc3c(=O)[nH]cnc32)C(O)C1O)OCC1OC(n2cnc3c(=O)[nH]cnc32)C(O)C1O (stereo unspecified)
- GI50 (HT-29): > 100 µM (inactive)
- GI50 (OVCAR-5): > 100 µM (inactive)
- GI50 (DMS-273): > 100 µM (inactive)
- GI50 (HCT-15): > 100 µM
- GI50 (SN12C): > 100 µM (inactive)
- GI50 (SF-539): > 100 µM (inactive)
- GI50 (ACHN): > 100 µM (inactive)
- GI50 (SK-MEL-2): > 100 µM (inactive)
- GI50 (SNB-19): > 100 µM (inactive)
- GI50 (KM12): > 100 µM (inactive)
- GI50 (786-0): > 100 µM (inactive)
- GI50 (RXF 393): > 100 µM (inactive)
- GI50 (NCI-H460): > 100 µM (inactive)
- GI50 (M19-MEL): > 100 µM (inactive)
- GI50 (DLD-1): > 100 µM (inactive)

Structure (SMILES): COC(=O)C(=O)C(CC(=O)Nc1c(C)cccc1C)C(=O)OC (stereo unspecified)
- GI50 (HT-29): > 100 µM (inactive)
- GI50 (OVCAR-5): > 100 µM (inactive)
- GI50 (HCT-15): > 100 µM
- GI50 (SN12C): > 100 µM (inactive)
- GI50 (SF-539): > 100 µM (inactive)
- GI50 (ACHN): > 100 µM (inactive)
- GI50 (SK-MEL-2): > 100 µM (inactive)
- GI50 (LXFL 529): > 100 µM (inactive)
- GI50 (SNB-19): > 100 µM (inactive)
- GI50 (KM12): > 100 µM (inactive)
- GI50 (786-0): > 100 µM (inactive)
- GI50 (RXF 393): > 100 µM (inactive)
- GI50 (NCI-H460): > 100 µM (inactive)
- GI50 (M19-MEL): > 100 µM (inactive)
- GI50 (DLD-1): > 100 µM (inactive)

Structure (SMILES): CN(C)c1n/c(=N/c2ccc3ccccc3c2)ss1
- GI50 (DMS-273): > 10 µM (inactive)
- GI50 (HCT-15): 17.3 µM
- GI50 (SN12C): 32.9 µM (inactive)
- GI50 (SF-539): 78.9 µM (inactive)
- GI50 (ACHN): 20.6 µM (inactive)
- GI50 (SK-MEL-2): 21.3 µM (inactive)
- GI50 (LXFL 529): 9.1 µM (inactive)
- GI50 (SNB-19): 32 µM (inactive)
- GI50 (KM12): 15.6 µM (inactive)
- GI50 (786-0): 37.6 µM (inactive)
- GI50 (RXF 393): 41.9 µM (inactive)
- GI50 (NCI-H460): 5.75 µM (inactive)
- GI50 (DLD-1): 15.4 µM (inactive)

Structure (SMILES): COc1ccc(C(c2ccccc2C(=O)O)c2ccc(OC)c3ccccc23)c2ccccc12
- GI50 (HT-29): 11.9 µM (inactive)
- GI50 (OVCAR-5): 15.1 µM (inactive)
- GI50 (DMS-273): 14 µM (inactive)
- GI50 (HCT-15): 8.63 µM
- GI50 (SN12C): 10.9 µM (inactive)
- GI50 (SF-539): 12 µM (inactive)
- GI50 (ACHN): 10.4 µM (inactive)
- GI50 (LXFL 529): 6.35 µM (inactive)
- GI50 (SNB-19): 11.2 µM (inactive)
- GI50 (KM12): 8.15 µM (inactive)
- GI50 (786-0): 15.8 µM (inactive)
- GI50 (M19-MEL): 12.5 µM (inactive)
- GI50 (DLD-1): 7.31 µM (inactive)

Structure (SMILES): COC(=O)C(Cc1ccccc1)NC(=O)Cn1ccnc1[N+](=O)[O-] (stereo unspecified)
- GI50 (HT-29): > 100 µM (inactive)
- GI50 (OVCAR-5): > 100 µM (inactive)
- GI50 (DMS-273): > 100 µM (inactive)
- GI50 (HCT-15): > 100 µM
- GI50 (SN12C): > 100 µM (inactive)
- GI50 (SF-539): > 100 µM (inactive)
- GI50 (ACHN): > 100 µM (inactive)
- GI50 (SK-MEL-2): > 100 µM (inactive)
- GI50 (LXFL 529): > 100 µM (inactive)
- GI50 (SNB-19): > 100 µM (inactive)
- GI50 (KM12): > 100 µM (inactive)
- GI50 (786-0): > 100 µM (inactive)
- GI50 (RXF 393): > 100 µM (inactive)
- GI50 (NCI-H460): > 100 µM (inactive)
- GI50 (M19-MEL): 95.3 µM (inactive)

From ChEMBL document CHEMBL1201862, “PubChem BioAssay data set” (2004)
